Measurements taken from PubChem BioAssay (NCI).
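Values below derive from 48-hour exposures of cells grown in 96-well plates, with endpoints linearly interpolated between the two concentrations bracketing the appropriate inhibition level. Abbreviation: GI50, concentration required for 50% inhibition of growth. Definition used: TGI = concentration required for complete inhibition of growth.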

How the values were obtained:
Experiment in all cases: DTP human tumour cell line panel, 48 h; in the data active means GI50 below about 0.43 µM; inactive means the rest
[1] = system: SN12C renal
[2] = system: ACHN renal
[3] = system: SK-OV-3 ovarian
[4] = system: OVCAR-4 ovarian
[5] = system: MALME-3M melanoma
[6] = system: OVCAR-8 ovarian
[7] = system: KM12 colon
[8] = system: HT29 colon
[9] = system: SR leukemia
[10] = system: TK-10 renal
[11] = system: SK-MEL-5 melanoma
[12] = system: UACC-257 melanoma
[13] = system: SNB-19 CNS
[14] = system: HOP-92 NSCLC
[15] = system: SF-295 CNS
[16] = system: 786-0 renal
[17] = system: MOLT-4 leukemia
[18] = system: MDA-MB-231 breast
[19] = system: SNB-75 CNS
[20] = system: HCT-116 colon
[21] = system: CCRF-CEM leukemia
[22] = system: SF-268 CNS
[23] = system: HOP-62 NSCLC
[24] = system: M14 melanoma
[25] = system: HCC-2998 colon
[26] = system: A498 renal
[27] = system: NCI-H522 lung
[28] = system: MCF7 breast
[29] = system: BT-549 breast
[30] = system: U251 CNS
[31] = system: COLO 205 colon
[32] = system: UACC-62 melanoma
[33] = system: T-47D breast
[34] = system: RXF 393 renal
[35] = system: SK-MEL-28 melanoma
[36] = system: HS 578T breast
[37] = system: DU-145 prostate
[38] = system: SK-MEL-2 melanoma
[39] = system: RPMI-8226 leukemia
[40] = system: MDA-MB-435
[41] = system: SF-539 CNS
[42] = system: PC-3 prostate
[43] = system: UO-31 renal
[44] = system: HCT-15 colon
[45] = system: IGROV1 ovarian
[46] = system: NCI/ADR-RES ovarian
[47] = system: K-562 leukemia
[48] = system: HL-60(TB) leukemia
[49] = system: LOX IMVI melanoma
[50] = system: NCI-H23 lung
[51] = system: OVCAR-5 ovarian
[52] = system: A549 NSCLC
[53] = system: OVCAR-3 ovarian
[54] = system: NCI-H460 lung
[55] = system: SW-620 colon
[56] = system: NCI-H226 lung

Cc1ccc(S(=O)(=O)Oc2ccc3c4c(c(=O)oc3c2)CCCCCC4)cc1
inactive: GI50 [1] > 100 µM | GI50 [2] > 100 µM | GI50 [3] > 100 µM | GI50 [4] > 100 µM | GI50 [5] > 100 µM | GI50 [6] > 100 µM | GI50 [7] 4.78 µM | GI50 [8] 0.531 µM | GI50 [9] 5.66 µM | GI50 [10] > 100 µM | GI50 [11] 4.45 µM | GI50 [12] 8.7 µM | GI50 [13] > 100 µM | GI50 [14] 1.34 µM | GI50 [15] > 100 µM | GI50 [16] > 100 µM | GI50 [17] 9.57 µM | GI50 [18] > 100 µM | GI50 [19] > 100 µM | GI50 [20] 8.04 µM | GI50 [21] 8.92 µM | GI50 [22] > 100 µM | GI50 [23] > 100 µM | GI50 [24] > 100 µM | GI50 [25] > 100 µM | GI50 [26] 4.43 µM | GI50 [27] > 100 µM | GI50 [28] > 100 µM | GI50 [29] > 100 µM | GI50 [30] > 100 µM | GI50 [31] 2.92 µM | GI50 [32] > 100 µM | GI50 [33] 5.05 µM | GI50 [34] > 100 µM | GI50 [35] > 100 µM | GI50 [36] > 100 µM | GI50 [37] > 100 µM | GI50 [38] 75 µM | GI50 [39] 2.33 µM | GI50 [40] > 100 µM | GI50 [41] > 100 µM | GI50 [42] 5.97 µM | GI50 [43] 27.3 µM | GI50 [44] 3.16 µM | GI50 [45] > 100 µM | GI50 [46] 5.08 µM | GI50 [47] 3.88 µM | GI50 [48] 7.17 µM | GI50 [49] > 100 µM | GI50 [50] > 100 µM | GI50 [51] > 100 µM | GI50 [52] > 100 µM | GI50 [53] > 100 µM | GI50 [54] > 100 µM | GI50 [55] 2.76 µM | GI50 [56] 8.31 µM
> 100 µM: TGI [1] | TGI [2] | TGI [3] | TGI [4] | TGI [5] | TGI [6] | TGI [7] | TGI [8] | TGI [9] | TGI [10] | TGI [11] | TGI [12] | TGI [13] | TGI [14] | TGI [15] | TGI [16] | TGI [17] | TGI [18] | TGI [19] | TGI [20] | TGI [21] | TGI [22] | TGI [23] | TGI [24] | TGI [25] | TGI [26] | TGI [27] | TGI [28] | TGI [29] | TGI [30] | TGI [31] | TGI [32] | TGI [33] | TGI [34] | TGI [35] | TGI [36] | TGI [37] | TGI [38] | TGI [39] | TGI [40] | TGI [41] | TGI [42] | TGI [43] | TGI [44] | TGI [45] | TGI [46] | TGI [47] | TGI [48] | TGI [49] | TGI [50] | TGI [51] | TGI [52] | TGI [53] | TGI [54] | TGI [55] | TGI [56]
